The record followed here is patent publication US5696117A, “Benzoxazine antimicrobial agents” (Ortho Pharmaceutical Corporation, priority 1995, dated 1997).

This assay concerns the target T1, Kinase A and SpoOF (Bacillus subtilis, UniProt P16497).
T1 construct: made in house; host or cells: recombinant E. coli (overexpression)
T1 sequence (P16497 1-606): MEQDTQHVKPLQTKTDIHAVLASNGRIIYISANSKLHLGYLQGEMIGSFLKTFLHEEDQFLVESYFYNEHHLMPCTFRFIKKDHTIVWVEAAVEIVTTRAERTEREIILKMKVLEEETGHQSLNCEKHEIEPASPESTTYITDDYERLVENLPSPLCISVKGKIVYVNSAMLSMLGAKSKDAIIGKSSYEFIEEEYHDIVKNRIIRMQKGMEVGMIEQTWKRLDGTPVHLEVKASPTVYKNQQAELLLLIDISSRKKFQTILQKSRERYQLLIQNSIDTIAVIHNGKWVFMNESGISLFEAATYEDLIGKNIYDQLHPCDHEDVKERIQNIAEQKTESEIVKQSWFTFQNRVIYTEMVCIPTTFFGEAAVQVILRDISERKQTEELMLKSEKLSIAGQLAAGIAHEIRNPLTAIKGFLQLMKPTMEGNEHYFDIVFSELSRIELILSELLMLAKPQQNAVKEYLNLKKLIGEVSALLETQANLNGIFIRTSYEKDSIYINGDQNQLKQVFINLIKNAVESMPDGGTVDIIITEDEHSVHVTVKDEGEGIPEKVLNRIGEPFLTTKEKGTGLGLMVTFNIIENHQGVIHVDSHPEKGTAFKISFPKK
Kind of assay: Autophosphorylation of Kinase A and Transphosphorylation of SpoOF Assay (HPK in vitro assay). The format is biochemical. Conditions: inhibition of KinA autophosphorylation / SpoOF transphosphorylation, inhibitor concentrations from 1 to 500 μM. Here is the method:
1. Autophosphorylation of Kinase A and Transphosphorylation of SpoOF Assay
To study the effect of the compounds of the present invention on the signal transduction process in bacteria, the inhibiting effect of the compounds on the sporulation operon proteins Kinase A and SpoOF was examined. Specifically, the inhibition of autophosphorylation of Kinase A and the transphosphorylation of SpoOF was determined in the following assays. The SpoOF response regulator is the primary substrate for phosphorylation by the protein kinase, Kin A, involved in the sporulation process in bacteria. See D. Burbulys, K. A. Trach, J. A. Hoch, Cell, 64, 545-552 (1991). SpoOF and KinA were prepared from recombinant E. coli overexpressing the proteins (J. Cavanagh et al, Amino Acids, 6, 131-140 (1994) and references therein).
The following stock reagents were either prepared and used promptly or stored at the indicated temperature:
8× Salts: 2M KCl (5 mL), 1M MgCl2 (800 mL), 1M CaCl2 (100 mL), 10 mg/mL phenylmethylsulfonyl fluoride (200 mL), 1M dithioreitol (50 mL), 0.25M Na2 EDTA (32 mL) and H2 O 3.82 mL (-20° C.)
5× Loading Dye: 0.5M TRIS-HCl-pH 6.8 (7.5 mL), 10% SDS (2 mL) 0.1% bromophenol blue (0.5 mL), 100% glycerol (3 mL) and 12.5M 2-mercaptoethanol (0.3 mL)
1-1.3 mg/mL KinA:15 mM TRIS-HCl, pH 8.0, 6 mM KCl; 4 mM 2-mercaptoethanol; 40% glycerol (-20° C.)
1 mg/mL SpoOF: 17.5 mM TRIS-HCl, pH 8.0; 0.7 mM KCl; 0.7 mM MgCl2; 0.7 mM CaCl2; 5mM 2-mercaptoethanol; 30% Glycerol (-20° C.)
5% Stacking Gel: 40% 29:1 acrylamide:bis acrylamide (1.25 mL), 0.5M TRIS-HCl, pH 6.8 (2.5 mL), 10% SDS (0.1 mL), D-H2 O (6.15 mL) 10% ammonium persulfate (100 mL) and TEMED (25 mL)
SDS Running Buffer: TRIS-BASE (3.02 g), glycine (14.4 g) SDS (1 g), D-H2 O (to 1 L)
The reaction mixture was prepared from 8× Salts (87 μL), 1M TRIS, pH 8 (118 μL), 50% glycerol (63 μL), SpoOF (14.1 μL) and KinA (7.0 μL). Microcentrifuge tubes were charged with the reaction mixture (18.5 μL) and a 1.0 mM solution of the test compound in 5% DMSO (18.5 μL), and incubated for 15 min on ice. 100 mM ATP solution (3.0 μl, containing 625 μCi [^32 P]ATP) was added, and the mixture left for 10 minutes at room temperature. The reaction was quenched with 5× loading dye (10 μL per tube) and the samples were loaded on a prepared 5% Stacking Gel, or stored on dry ice until ready for use. The prepared wells were filled with SDS Running Buffer, samples were loaded into the wells, and 80 volts were applied to the gel until the dye front reached the bottom of the stacking gel. The voltage was then increased to 250 volts until electrophoresis was complete. Radioactive bands in the gel corresponding to phosphorylated KinA and SpoOF were imaged and quantitated with a phosphoimager.
If either enzyme was inhibited (as evidenced by the absence of labelled protein in the developed gel), an IC50 was calculated by running the assay with a range of inhibitor concentrations from 1 to 500 μM. After electrophoresis of the reaction mixtures, percent inhibition was determined by measuring the concentration of radioactive phosphorus with a phosphoimager and calculating the values using a software program (BioRad Molecular Analyst). IC50 values of less than 500 μM are considered active.

As to `N=C(N)NCCc1ccc(OCCC2Oc3ccccc3N(Cc3ccc(-c4ccccc4)cc3)C2=O)cc1` (stereo not drawn) [Compound 38, 3,4-Dihydro-2-{2-[4-(2-guanidinoethyl)phenoxy]ethyl}-3-oxo-4-(4-phenylbenzyl)-2H-1,4-benzoxazine], the IC50 turned out to be 34 µM. The same measure for `N=C(N)NCCc1ccc(OCCC2Oc3ccccc3N(Cc3ccncc3)C2=O)cc1` (stereo not drawn) [Compound 42, 3,4-Dihydro-2-{2-[4-(2-guanidinoethyl)phenoxy]ethyl}-3-oxo-4-(4-picolyl)-2H-1,4-benzoxazine]: 444 µM; for `N=C(N)NCCc1ccc(OCCC2Oc3ccccc3N(Cc3cccc4ccccc34)C2=O)cc1` (stereo not drawn) [Compound 43, 3,4-Dihydro-2-{2-[4-(2-guanidinoethyl)phenoxy]ethyl}-4-(1-naphthylmethyl)-3-oxo-2H-1,4-benzoxazine]: 13 µM. Next, `N=C(N)NCCc1ccc(OCCC2Oc3ccccc3N(Cc3ccc4ccccc4c3)C2=O)cc1` (stereo not drawn) [Compound 45, 3,4-Dihydro-2-{2-[4-(2-guanidinylethyl)phenoxy]ethyl}-4-(2-naphthylmethyl)-3-oxo-2H-1,4-benzoxazine]: 17 µM. `N=C(N)NCCc1ccc(OCCC2Oc3ccccc3N(Cc3ccsc3)C2=O)cc1` (stereo not drawn) [Compound 46, 3,4-Dihydro-2-{2-[4-(2-guanidinylethyl)phenoxy]ethyl}-3-oxo-2H-4-(3-thienylmethyl)-1,4-benzoxazine] gave an IC50 of 68 µM.

`CC(C)(C)OC(=O)N=C(NCCc1ccc(OCCC2Oc3ccccc3N(Cc3csc(Cl)c3)C2=O)cc1)NC(=O)OC(C)(C)C` (stereo not drawn) [Compound 47, 2-{2-[4-[2-(N,N-Bis-tert-butoxycarbonylguanidino)ethyl]phenoxy]ethyl}-4-(2-chloro-4-thienylmethyl)-3,4-dihydro-3-oxo-2H-1,4-benzoxazine] showed a half-inhibitory concentration (IC50) of 398 µM. The same measure for `N=C(N)NCCc1ccc(OCCC2Oc3ccccc3N(Cc3csc(Cl)c3)C2=O)cc1` (stereo not drawn) [Compound 48, 4-(2-Chloro-4-thienylmethyl)-3,4-dihydro-2-{2-[4-(2-guanidinoethyl)phenoxy]ethyl}-3-oxo-2H-1,4-benzoxazine]: 26 µM; for `N=C(N)NCCc1ccc(OCCC2Oc3ccc(-c4ccccc4)cc3N(Cc3cccc(Cl)c3)C2=O)cc1` (stereo not drawn) [Compound 52, 4-(3-Chlorobenzyl)-3,4-dihydro-2-{2-[4-(2-guanidinoethyl)phenoxy]ethyl}-3-oxo-6-phenyl-2H-1,4-benzoxazine]: 36 µM.

The compound `CC(C)(C)OC(=O)N=C(NCCc1ccc(OCCC2Oc3ccc(C(F)(F)F)cc3N(Cc3cccc(Cl)c3)C2=O)cc1)NC(=O)OC(C)(C)C` (stereo not drawn) [Compound 53, 2-{2-[4-[2-(N,N'-Bis-tert-butoxycarbonylguanidino)ethyl]phenoxy]ethyl}-4-(3-chlorobenzyl)-3,4-dihydro-3-oxo-6-trifluoromethyl-2H-1,4-benzoxazine] had a concentration for half-maximal inhibition (IC50) of 84 µM.

On to `N=C(N)NCCc1ccc(OCCC2Oc3ccc(C(F)(F)F)cc3N(Cc3cccc(Cl)c3)C2=O)cc1` (stereo not drawn) [Compound 54, 4-(3-Chlorobenzyl)-3,4-dihydro-2-{2-[4-(2-guanidinoethyl)phenoxy]ethyl}-3-oxo-6-trifluoromethyl-2H-1,4-benzoxazine], for which the IC50 was 14 µM.

For the compound `N=C(N)NCCc1ccc(OCCC2Oc3cc(F)ccc3N(Cc3cccc(Cl)c3)C2=O)cc1` (stereo not drawn) [Compound 55, 4-(3-Chlorobenzyl)-3,4-dihydro-7-fluoro-2-{2-[4-(2-guanidinoethyl)phenoxy]ethyl}-3-oxo-2H-1,4-benzoxazine], the IC50 was 28 µM. Regarding `N=C(N)NCCc1ccc(OCCC2Oc3c(Cl)cc(Cl)cc3N(Cc3cccc(Cl)c3)C2=O)cc1` (stereo not drawn) [Compound 57, 4-(3-Chlorobenzyl)-6,8-dichloro-2-{2-[4-(2-guanidinoethyl)phenoxy]ethyl}-3,4-dihydro-3-oxo-2H-1,4-benzoxazine], the IC50 was 17 µM. Compound `CN1C(=O)C(CCOc2ccc(CCNC(=NC(=O)OC(C)(C)C)NC(=O)OC(C)(C)C)cc2)Oc2ccccc21` (stereo not drawn) [Compound 59, 2-{2-[4-[2-(N,N'-Bis-tert-butoxycarbonylguanidino)ethyl]phenoxy]ethyl}-3,4-dihydro-4-methyl-3-oxo-2H-1,4-benzoxazine] gave an IC50 of 473 µM. `N=C(N)NCCc1ccc(OCCC2Oc3ccncc3N(Cc3cccc(Cl)c3)C2=O)cc1` (stereo not drawn) [Compound 62, 4-(3-Chlorobenzyl)-3,4-dihydro-2-[2-[4-(2-guanidinoethyl)phenoxy]ethyl]-3-oxo-2H-pyrido[4,3-b]-1,4-oxazine]: the concentration for half-maximal inhibition (IC50) was 174 µM. Next, `Cc1ccc(CN2CC(CCOc3ccc(CCNC(=N)N)cc3)Oc3ccccc32)cc1` (stereo not drawn) [Compound 66, 3,4-Dihydro-2-{2-[4-[2-guanidinoethyl]phenoxy]ethyl}-4-(4-methylbenzyl)-2H-1,4-benzoxazine]: 19 µM. Take `N=C(N)NCCc1ccc(OCCC2CN(Cc3ccc(Cl)cc3Cl)c3ccccc3O2)cc1` (stereo not drawn) [Compound 68, (2,4-Dichlorobenzyl)-3,4-dihydro-2-{2-[4-(2-guanidinoethyl)phenoxy]ethyl}-4-2H-1,4-benzoxazine]: the 50% inhibitory concentration (IC50) is on record as 17 µM. As for `CC(C)(C)OC(=O)NCCc1cccc(OCCC2Oc3ccccc3N(Cc3cccc(Cl)c3)C2=O)c1` (stereo not drawn) [Compound 69, 2-{2-[3-(2-(t-Butoxycarbonylamino)ethyl)phenoxy]ethyl}-4-(3-chlorobenzyl)-3,4-dihydro-3-oxo-2H-1,4-benzoxazine], the IC50 is reported as 358 µM.

In the case of `CC(C)(C)OC(=O)N=C(NCCc1ccc(OCCC2Oc3ccccc3N(Cc3cccc(Cl)c3)C2=O)cc1)NC(=O)OC(C)(C)C` (stereo not drawn) [Compound 71, 2-{2-[4-[2-(N,N-'Bis-tert-butoxycarbonylguanidino)ethyl]phenoxy]ethyl}-4-(3-chlorobenzyl)-3,4-dihydro-3-oxo-2H-1,4-benzoxazine], the half-inhibitory concentration (IC50) stood at 300 µM. Next, `CC(C)(C)OC(=O)NCc1cccc(OCCC2Oc3ccccc3N(Cc3cccc(Cl)c3)C2=O)c1` (stereo not drawn) [Compound 73, 2-{2-[3-(t-Butoxycarbonylaminomethyl)phenoxy]ethyl}-4-(3-chlorobenzyl)-3,4-dihydro-3-oxo-2H-1,4-benzoxazine]: 354 µM; `CC(C)(C)OC(=O)N=C(NCc1ccc(OCCC2Oc3ccccc3N(Cc3cccc(Cl)c3)C2=O)cc1)NC(=O)OC(C)(C)C` (stereo not drawn) [Compound 77, 2-{2-[4-[(N,N-'Bis-tert-butoxycarbonyl)guanidinomethyl]phenoxy]ethyl}-4-(3-chlorobenzyl)-3,4-dihydro-3-oxo-2H-1,4-benzoxazine]: 51 µM; `CC(C)(C)OC(=O)N=C(NCCc1ccc(OCCC2Oc3cc([N+](=O)[O-])ccc3N(Cc3cccc(Cl)c3)C2=O)cc1)NC(=O)OC(C)(C)C` (stereo not drawn) [Compound 80]: 162 µM.

As a reminder, the IC50 is the concentration that inhibits the measured activity by half.
